Experimental data reported in ChEMBL document CHEMBL3885861, “Open TG-GATES”.

Organism: Rattus norvegicus
Assay: Open TG-GATES - Regimen: Single
Format: toxicity, organism-based, Sprague-Dawley
Parameters: regimen Single, gender Male, age 6 weeks
Details: in vivo, po, 100 mg/kg, route gavage, dose level Low; for APTT / Bas / Eos / Fbg / Hb / Ht / Lym / MCH / MCHC / MCV / Mono / Neu / PT / Plat / RBC / Ret / WBC: tissue Blood; for KIDNEY_L / KIDNEY_R / KIDNEY_TOTAL: tissue Kidney; for LIVER: tissue Liver; for A/G / ALP / ALT / AST / BUN / CRE / Ca / Cl / DBIL / GLC / IP / K / LDH / Na / PL / RALB / TBIL / TC / TG / TP / gamma-GTP: tissue Plasma

O=C(N[C@H](CO)[C@H](O)c1ccc([N+](=O)[O-])cc1)C(Cl)Cl [CHLORAMPHENICOL]
TERMINAL_BW (3 h): 219.7 g | APTT (3 h): 16 s | Bas (3 h): 0% | Eos (3 h): 0.6% | Fbg (3 h): 268.8 mg/dL | Hb (3 h): 13.2 g/dL | Ht (3 h): 38.6% | Lym (3 h): 76.2% | MCH (3 h): 21.9 pg | MCHC (3 h): 34.3% | MCV (3 h): 63.8 fL | Mono (3 h): 3% | Neu (3 h): 19.2% | PT (3 h): 14.6 s | Plat (3 h): 115.2 x10_4/uL | RBC (3 h): 608.2 x10_4/ul | Ret (3 h): 8.1% | WBC (3 h): 83.6 x10_2/uL | KIDNEY_L (3 h): 0.9 g | KIDNEY_R (3 h): 0.9 g | KIDNEY_TOTAL (3 h): 1.9 g | LIVER (3 h): 9.6 g | A/G (3 h): 0.8 | ALP (3 h): 1429.8 IU/L | ALT (3 h): 43 IU/L | AST (3 h): 74.2 IU/L | BUN (3 h): 10.2 mg/dL | CRE (3 h): 0.2 mg/dL | Ca (3 h): 11.5 mg/dL | Cl (3 h): 105 meq/L | DBIL (3 h): 0.014 mg/dL | GLC (3 h): 180.8 mg/dL | IP (3 h): 8.7 mg/dL | K (3 h): 4.2 meq/L | LDH (3 h): 58.6 IU/L | Na (3 h): 140.4 meq/L | PL (3 h): 136.6 mg/dL | RALB (3 h): 2.5 g/dL | TBIL (3 h): 0.06 mg/dL | TC (3 h): 78.4 mg/dL | TG (3 h): 58.4 mg/dL | TP (3 h): 5.4 g/dL | gamma-GTP (3 h): 1.2 IU/L | TERMINAL_BW (6 h): 219.6 g | APTT (6 h): 17.7 s | Bas (6 h): 0% | Eos (6 h): 0.8% | Fbg (6 h): 283.6 mg/dL | Hb (6 h): 13.4 g/dL | Ht (6 h): 42.9% | Lym (6 h): 78.2% | MCH (6 h): 21.3 pg | MCHC (6 h): 31.1% | MCV (6 h): 68.5 fL | Mono (6 h): 2.2% | Neu (6 h): 18.2% | PT (6 h): 14.7 s | Plat (6 h): 106.7 x10_4/uL | RBC (6 h): 627.6 x10_4/ul | Ret (6 h): 7.9% | WBC (6 h): 71.4 x10_2/uL | KIDNEY_L (6 h): 1 g | KIDNEY_R (6 h): 1 g | KIDNEY_TOTAL (6 h): 1.9 g | LIVER (6 h): 9.1 g | A/G (6 h): 0.9 | ALP (6 h): 1362.6 IU/L | ALT (6 h): 39.2 IU/L | AST (6 h): 75.2 IU/L | BUN (6 h): 9 mg/dL | CRE (6 h): 0.2 mg/dL | Ca (6 h): 11.4 mg/dL | Cl (6 h): 105 meq/L | DBIL (6 h): 0.012 mg/dL | GLC (6 h): 176.8 mg/dL | IP (6 h): 9.6 mg/dL | K (6 h): 4.2 meq/L | LDH (6 h): 89.4 IU/L | Na (6 h): 141 meq/L | PL (6 h): 126.2 mg/dL | RALB (6 h): 2.5 g/dL | TBIL (6 h): 0.066 mg/dL | TC (6 h): 72.6 mg/dL | TG (6 h): 48.4 mg/dL | TP (6 h): 5.4 g/dL | gamma-GTP (6 h): 1.2 IU/L | TERMINAL_BW (9 h): 221.1 g | APTT (9 h): 16.6 s | Bas (9 h): 0% | Eos (9 h): 1% | Fbg (9 h): 281.8 mg/dL | Hb (9 h): 13.3 g/dL | Ht (9 h): 42.4% | Lym (9 h): 78.6% | MCH (9 h): 21.2 pg | MCHC (9 h): 31.3% | MCV (9 h): 67.8 fL | Mono (9 h): 2% | Neu (9 h): 17.6% | PT (9 h): 14.8 s | Plat (9 h): 115.3 x10_4/uL | RBC (9 h): 626.6 x10_4/ul | Ret (9 h): 7.9% | WBC (9 h): 61.1 x10_2/uL | KIDNEY_L (9 h): 0.9 g | KIDNEY_R (9 h): 0.9 g | KIDNEY_TOTAL (9 h): 1.9 g | LIVER (9 h): 9 g | A/G (9 h): 0.9 | ALP (9 h): 1589.8 IU/L | ALT (9 h): 38.8 IU/L | AST (9 h): 67.2 IU/L | BUN (9 h): 9 mg/dL | CRE (9 h): 0.2 mg/dL | Ca (9 h): 11.4 mg/dL | Cl (9 h): 105.2 meq/L | DBIL (9 h): 0.014 mg/dL | GLC (9 h): 181 mg/dL | IP (9 h): 10 mg/dL | K (9 h): 4.2 meq/L | LDH (9 h): 61.4 IU/L | Na (9 h): 140.8 meq/L | PL (9 h): 145.6 mg/dL | RALB (9 h): 2.6 g/dL | TBIL (9 h): 0.072 mg/dL | TC (9 h): 83.2 mg/dL | TG (9 h): 47.4 mg/dL | TP (9 h): 5.5 g/dL | gamma-GTP (9 h): 1 IU/L | TERMINAL_BW (24 h): 224.4 g | APTT (24 h): 16.8 s | Bas (24 h): 0% | Eos (24 h): 1% | Fbg (24 h): 264.4 mg/dL | Hb (24 h): 13.3 g/dL | Ht (24 h): 41.6% | Lym (24 h): 79.8% | MCH (24 h): 21.4 pg | MCHC (24 h): 32% | MCV (24 h): 66.7 fL | Mono (24 h): 3.6% | Neu (24 h): 15% | PT (24 h): 14.8 s | Plat (24 h): 123 x10_4/uL | RBC (24 h): 623.4 x10_4/ul | Ret (24 h): 7% | WBC (24 h): 81.1 x10_2/uL | KIDNEY_L (24 h): 1 g | KIDNEY_R (24 h): 1 g | KIDNEY_TOTAL (24 h): 1.9 g | LIVER (24 h): 9.4 g | A/G (24 h): 0.9 | ALP (24 h): 1622.8 IU/L | ALT (24 h): 48.2 IU/L | AST (24 h): 80.4 IU/L | BUN (24 h): 15 mg/dL | CRE (24 h): 0.2 mg/dL | Ca (24 h): 11.4 mg/dL | Cl (24 h): 105.8 meq/L | DBIL (24 h): 0.012 mg/dL | GLC (24 h): 186.6 mg/dL | IP (24 h): 8.6 mg/dL | K (24 h): 4.1 meq/L | LDH (24 h): 61.4 IU/L | Na (24 h): 141.6 meq/L | PL (24 h): 133 mg/dL | RALB (24 h): 2.6 g/dL | TBIL (24 h): 0.058 mg/dL | TC (24 h): 76.8 mg/dL | TG (24 h): 53.6 mg/dL | TP (24 h): 5.6 g/dL | gamma-GTP (24 h): 1 IU/L
